Source: publication PMC5862592, “CDK8/19 inhibition induces premature G1/S transition and ATR-dependent cell death in prostate cancer cells” (Oncotarget, 2018)
Read-outs that look alike come from different tables or passages of the source.

Key:
Test in all cases: biochemical
Parameters in all cases: KINOMEscan active site-directed competition binding assay (DiscoveRx), 456 kinases, per cent of control at 300 nM
Details in all cases: read-out: Percent of Control (%)
[1] = biological target: T1, ABL1(F317I)-nonphosphorylated (Homo sapiens, UniProt P00519, F317I)
T1 construct: nonphosphorylated
Method in brief: (§1)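 Compounds at 300 nmol/L screened against 456 kinases by KINOMEscan, a competition binding assay measuring displacement at the kinase active site.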

ABL1-nonphosphorylated = biological target: T2, ABL1-nonphosphorylated (Homo sapiens, UniProt P00519)
T2 construct: nonphosphorylated
Method in brief: as §1

ALK(C1156Y) = ALK(C1156Y) (Homo sapiens, UniProt Q9UM73, C1156Y)
Method in brief: as §1

BRAF(V600E) = BRAF(V600E) (Homo sapiens, UniProt P15056, V600E)
Method in brief: as §1

BRSK2 = BRSK2 (Homo sapiens, UniProt Q8IWQ3)
Method in brief: as §1

DYRK1A = DYRK1A (Homo sapiens, UniProt Q13627)
Method in brief: as §1

EGFR(E746-A750del) = EGFR(E746-A750del) (Homo sapiens, UniProt P00533, DEL746-750)
Method in brief: as §1

FGFR1 = FGFR1 (Homo sapiens, UniProt P11362)
Method in brief: as §1

[2] = biological target: T3, JAK1(JH2domain-pseudokinase) (Homo sapiens, UniProt P23458)
T3 construct: JH2domain-pseudokinase
Method in brief: as §1

JNK3 = biological target: T4, JNK3 (Homo sapiens, UniProt P53779)
T4 construct: gene MAPK10
Method in brief: as §1

LATS2 = LATS2 (Homo sapiens, UniProt Q9NRM7)
Method in brief: as §1

LZK = biological target: T5, LZK (Homo sapiens, UniProt O43283)
T5 construct: gene MAP3K13
Method in brief: as §1

MAP3K2 = MAP3K2 (Homo sapiens, UniProt Q9Y2U5)
Method in brief: as §1

MEK3 = biological target: T6, MEK3 (Homo sapiens, UniProt P46734)
T6 construct: gene MAP2K3
Method in brief: as §1

MST4 = biological target: T7, MST4 (Homo sapiens, UniProt Q9P289)
T7 construct: gene STK26
Method in brief: as §1

MYLK4 = MYLK4 (Homo sapiens, UniProt Q86YV6)
Method in brief: as §1

NEK10 = NEK10 (Homo sapiens, UniProt Q6ZWH5)
Method in brief: as §1

NEK5 = NEK5 (Homo sapiens, UniProt Q6P3R8)
Method in brief: as §1

PCTK2 = biological target: T8, PCTK2 (Homo sapiens, UniProt Q00537)
T8 construct: gene CDK17
Method in brief: as §1

PKMYT1 = PKMYT1 (Homo sapiens, UniProt Q99640)
Method in brief: as §1

S6K1 = biological target: T9, S6K1 (Homo sapiens, UniProt P23443)
T9 construct: gene RPS6KB1
Method in brief: as §1

Sequence of EGFR(E746-A750del) (P00533 with tags, fused parts or gaps DEL746-750): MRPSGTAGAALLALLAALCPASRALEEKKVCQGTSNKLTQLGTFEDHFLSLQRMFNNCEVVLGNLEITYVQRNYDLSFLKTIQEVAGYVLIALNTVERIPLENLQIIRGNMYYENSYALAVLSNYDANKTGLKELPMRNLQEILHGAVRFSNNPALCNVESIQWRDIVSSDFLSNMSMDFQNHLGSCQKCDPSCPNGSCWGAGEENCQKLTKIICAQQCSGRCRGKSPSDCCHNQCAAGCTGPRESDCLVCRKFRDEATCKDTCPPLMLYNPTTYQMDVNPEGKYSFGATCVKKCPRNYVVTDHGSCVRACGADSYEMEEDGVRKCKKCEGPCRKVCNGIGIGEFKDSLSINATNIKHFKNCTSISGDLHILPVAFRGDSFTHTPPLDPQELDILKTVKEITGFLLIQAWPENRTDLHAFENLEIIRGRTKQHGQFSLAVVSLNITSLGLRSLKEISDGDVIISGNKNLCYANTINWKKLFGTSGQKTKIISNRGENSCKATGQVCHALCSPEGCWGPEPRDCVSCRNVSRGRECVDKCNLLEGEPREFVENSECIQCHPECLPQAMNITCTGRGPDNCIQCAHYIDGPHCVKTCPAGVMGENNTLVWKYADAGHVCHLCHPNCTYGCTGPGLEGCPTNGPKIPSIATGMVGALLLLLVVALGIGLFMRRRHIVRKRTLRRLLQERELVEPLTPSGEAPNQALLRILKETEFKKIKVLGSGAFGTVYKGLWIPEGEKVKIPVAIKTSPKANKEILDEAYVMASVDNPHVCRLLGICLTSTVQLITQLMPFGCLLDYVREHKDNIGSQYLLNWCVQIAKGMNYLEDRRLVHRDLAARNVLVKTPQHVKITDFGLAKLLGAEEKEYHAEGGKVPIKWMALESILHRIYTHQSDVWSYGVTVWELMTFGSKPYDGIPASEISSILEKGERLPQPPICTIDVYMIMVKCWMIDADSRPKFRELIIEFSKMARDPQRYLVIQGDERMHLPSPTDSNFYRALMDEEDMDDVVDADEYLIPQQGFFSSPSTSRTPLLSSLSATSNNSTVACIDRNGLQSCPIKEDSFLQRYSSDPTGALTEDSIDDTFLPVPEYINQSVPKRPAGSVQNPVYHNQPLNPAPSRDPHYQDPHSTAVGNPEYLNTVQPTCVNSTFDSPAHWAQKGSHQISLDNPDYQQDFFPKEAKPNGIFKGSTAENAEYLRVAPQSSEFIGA
Sequence of BRSK2 (Q8IWQ3 whole entry): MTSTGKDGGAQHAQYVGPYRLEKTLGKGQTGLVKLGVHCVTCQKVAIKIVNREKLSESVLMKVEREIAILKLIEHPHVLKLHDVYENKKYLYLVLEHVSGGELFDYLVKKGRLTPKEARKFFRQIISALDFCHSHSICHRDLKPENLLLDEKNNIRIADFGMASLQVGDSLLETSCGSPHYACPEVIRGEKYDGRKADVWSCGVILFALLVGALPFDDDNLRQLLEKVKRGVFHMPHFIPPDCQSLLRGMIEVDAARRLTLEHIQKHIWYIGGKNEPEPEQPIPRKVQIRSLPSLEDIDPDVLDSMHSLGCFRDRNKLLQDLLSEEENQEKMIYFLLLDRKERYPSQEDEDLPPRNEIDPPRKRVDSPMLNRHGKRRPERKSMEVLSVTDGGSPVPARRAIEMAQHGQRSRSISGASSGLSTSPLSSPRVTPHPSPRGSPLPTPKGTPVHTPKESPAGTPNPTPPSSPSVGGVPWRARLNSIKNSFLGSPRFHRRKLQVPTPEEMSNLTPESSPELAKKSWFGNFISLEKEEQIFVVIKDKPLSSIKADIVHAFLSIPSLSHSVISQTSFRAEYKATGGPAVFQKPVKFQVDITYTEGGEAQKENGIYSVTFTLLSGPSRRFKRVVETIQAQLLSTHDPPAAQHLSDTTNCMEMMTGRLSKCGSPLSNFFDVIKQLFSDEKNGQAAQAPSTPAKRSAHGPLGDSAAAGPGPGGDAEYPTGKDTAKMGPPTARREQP
Sequence of NEK5 (Q6P3R8 whole entry): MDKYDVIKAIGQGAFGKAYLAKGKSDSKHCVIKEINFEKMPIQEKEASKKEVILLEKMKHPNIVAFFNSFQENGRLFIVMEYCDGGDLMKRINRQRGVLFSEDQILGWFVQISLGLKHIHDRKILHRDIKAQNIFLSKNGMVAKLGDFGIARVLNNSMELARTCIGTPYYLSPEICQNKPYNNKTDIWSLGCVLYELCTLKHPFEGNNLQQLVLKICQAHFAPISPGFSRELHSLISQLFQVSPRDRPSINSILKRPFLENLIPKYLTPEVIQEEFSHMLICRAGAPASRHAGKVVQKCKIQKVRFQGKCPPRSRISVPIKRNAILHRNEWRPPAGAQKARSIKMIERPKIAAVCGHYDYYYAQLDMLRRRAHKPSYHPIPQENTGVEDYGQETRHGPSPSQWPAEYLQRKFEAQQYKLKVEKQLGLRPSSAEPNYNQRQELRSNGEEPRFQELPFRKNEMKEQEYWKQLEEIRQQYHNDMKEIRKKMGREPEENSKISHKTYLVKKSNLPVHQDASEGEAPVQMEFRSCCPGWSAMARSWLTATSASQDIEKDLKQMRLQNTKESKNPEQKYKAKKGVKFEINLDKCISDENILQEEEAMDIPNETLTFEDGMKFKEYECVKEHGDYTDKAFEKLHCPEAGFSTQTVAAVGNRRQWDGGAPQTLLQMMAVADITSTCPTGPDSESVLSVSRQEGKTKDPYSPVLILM
T4 sequence (P53779 whole entry): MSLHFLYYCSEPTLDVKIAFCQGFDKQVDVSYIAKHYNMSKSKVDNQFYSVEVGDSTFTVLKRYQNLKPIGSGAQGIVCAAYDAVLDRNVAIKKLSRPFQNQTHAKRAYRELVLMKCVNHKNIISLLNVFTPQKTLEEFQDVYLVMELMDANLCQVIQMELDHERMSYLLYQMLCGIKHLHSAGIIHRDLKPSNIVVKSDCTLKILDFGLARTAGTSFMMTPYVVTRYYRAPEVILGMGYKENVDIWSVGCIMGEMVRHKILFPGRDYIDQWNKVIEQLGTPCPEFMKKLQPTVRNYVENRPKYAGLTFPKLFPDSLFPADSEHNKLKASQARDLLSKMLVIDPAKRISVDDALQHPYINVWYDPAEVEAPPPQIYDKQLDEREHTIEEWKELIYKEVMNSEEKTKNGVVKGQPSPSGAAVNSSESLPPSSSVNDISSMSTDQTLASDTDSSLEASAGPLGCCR
Sequence of BRAF(V600E) (P15056 whole entry V600E): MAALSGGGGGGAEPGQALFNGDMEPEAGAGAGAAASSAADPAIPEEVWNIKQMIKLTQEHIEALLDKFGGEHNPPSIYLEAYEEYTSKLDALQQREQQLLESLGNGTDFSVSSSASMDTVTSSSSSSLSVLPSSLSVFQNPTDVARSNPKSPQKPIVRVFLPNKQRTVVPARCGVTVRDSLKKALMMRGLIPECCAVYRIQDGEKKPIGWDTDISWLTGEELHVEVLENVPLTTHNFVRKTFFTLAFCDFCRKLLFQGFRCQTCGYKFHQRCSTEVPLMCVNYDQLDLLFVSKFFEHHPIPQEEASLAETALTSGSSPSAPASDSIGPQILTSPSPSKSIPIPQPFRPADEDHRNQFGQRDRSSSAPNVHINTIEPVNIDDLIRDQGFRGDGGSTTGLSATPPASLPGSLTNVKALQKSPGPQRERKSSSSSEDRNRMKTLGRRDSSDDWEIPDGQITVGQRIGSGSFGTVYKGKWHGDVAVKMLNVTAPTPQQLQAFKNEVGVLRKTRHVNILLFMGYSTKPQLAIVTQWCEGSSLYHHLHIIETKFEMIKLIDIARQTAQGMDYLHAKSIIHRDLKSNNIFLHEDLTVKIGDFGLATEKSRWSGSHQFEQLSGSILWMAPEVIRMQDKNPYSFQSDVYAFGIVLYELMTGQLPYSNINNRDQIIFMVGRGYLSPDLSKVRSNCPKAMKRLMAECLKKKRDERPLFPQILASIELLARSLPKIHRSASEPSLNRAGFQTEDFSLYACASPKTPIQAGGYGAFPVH
Sequence of FGFR1 (P11362 whole entry): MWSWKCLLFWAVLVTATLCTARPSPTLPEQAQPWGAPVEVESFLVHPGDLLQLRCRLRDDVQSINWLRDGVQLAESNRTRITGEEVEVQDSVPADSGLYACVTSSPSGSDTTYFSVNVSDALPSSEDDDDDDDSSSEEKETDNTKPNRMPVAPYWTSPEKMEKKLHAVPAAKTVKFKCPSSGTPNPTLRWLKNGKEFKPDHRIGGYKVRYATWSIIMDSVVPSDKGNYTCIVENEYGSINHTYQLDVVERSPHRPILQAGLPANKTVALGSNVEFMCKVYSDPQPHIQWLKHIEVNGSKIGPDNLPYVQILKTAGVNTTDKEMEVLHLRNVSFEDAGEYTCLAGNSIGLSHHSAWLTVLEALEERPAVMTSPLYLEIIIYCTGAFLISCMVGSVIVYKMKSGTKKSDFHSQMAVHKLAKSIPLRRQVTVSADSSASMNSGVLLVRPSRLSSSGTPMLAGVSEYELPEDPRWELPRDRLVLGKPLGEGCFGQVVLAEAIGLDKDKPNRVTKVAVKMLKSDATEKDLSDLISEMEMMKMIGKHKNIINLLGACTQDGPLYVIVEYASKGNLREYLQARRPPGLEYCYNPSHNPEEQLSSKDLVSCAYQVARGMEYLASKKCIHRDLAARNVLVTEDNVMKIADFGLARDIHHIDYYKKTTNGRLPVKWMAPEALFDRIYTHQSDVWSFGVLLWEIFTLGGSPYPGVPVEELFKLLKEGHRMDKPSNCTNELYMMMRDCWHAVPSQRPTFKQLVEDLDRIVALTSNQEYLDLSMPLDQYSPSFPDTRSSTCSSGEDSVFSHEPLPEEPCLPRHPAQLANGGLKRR
T6 sequence (P46734 whole entry): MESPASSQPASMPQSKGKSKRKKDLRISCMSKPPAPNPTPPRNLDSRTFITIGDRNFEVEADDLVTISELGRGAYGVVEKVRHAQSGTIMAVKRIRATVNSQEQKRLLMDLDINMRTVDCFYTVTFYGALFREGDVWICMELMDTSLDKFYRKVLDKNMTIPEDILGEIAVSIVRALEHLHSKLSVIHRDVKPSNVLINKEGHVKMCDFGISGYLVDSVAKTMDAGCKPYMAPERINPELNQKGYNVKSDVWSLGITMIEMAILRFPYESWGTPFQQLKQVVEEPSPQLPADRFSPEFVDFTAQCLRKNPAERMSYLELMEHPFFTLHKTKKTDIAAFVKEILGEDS

Q: Which results are given for O=C(/C=C/c1cnccc1-c1ccc(F)cc1)Nc1ccc(CCc2nnco2)cc1 [T-418, (2E)-3-(4-(4-fluorophenyl)pyridin-3-yl)-N-(4-(2-(1,3,4-oxadiazol-2-yl)ethyl)phenyl)acrylamide]?
A: remaining binding at 0.3 µM ([1]; sheet T-418): 100%; remaining binding at 0.3 µM (ABL1-nonphosphorylated; sheet T-418): 89%; remaining binding at 0.3 µM (ALK(C1156Y); sheet T-418): 91%; remaining binding at 0.3 µM (BRAF(V600E); sheet T-418): 100%; remaining binding at 0.3 µM (BRSK2; sheet T-418): 100%; remaining binding at 0.3 µM (DYRK1A; sheet T-418): 100%; remaining binding at 0.3 µM (EGFR(E746-A750del); sheet T-418): 92%; remaining binding at 0.3 µM (FGFR1; sheet T-418): 100%; remaining binding at 0.3 µM ([2]; sheet T-418): 100%; remaining binding at 0.3 µM (JNK3; sheet T-418): 94%; remaining binding at 0.3 µM (LATS2; sheet T-418): 100%; remaining binding at 0.3 µM (LZK; sheet T-418): 96%; remaining binding at 0.3 µM (MAP3K2; sheet T-418): 100%; remaining binding at 0.3 µM (MEK3; sheet T-418): 100%; remaining binding at 0.3 µM (MST4; sheet T-418): 63%; remaining binding at 0.3 µM (MYLK4; sheet T-418): 80%; remaining binding at 0.3 µM (NEK10; sheet T-418): 100%; remaining binding at 0.3 µM (NEK5; sheet T-418): 100%; remaining binding at 0.3 µM (PCTK2; sheet T-418): 100%; remaining binding at 0.3 µM (PKMYT1; sheet T-418): 73%; remaining binding at 0.3 µM (S6K1; sheet T-418): 100%

Q: Cc1ncccc1Oc1sc(C(N)=O)c2c1-c1c(cnn1C)CC2 [T-474, 1-methyl-8-((2-methylpyridin-3-yl)oxy)-4,5-dihydro-1H-thieno[3,4-g]indazole-6-carboxamide] was tested. Which remaining binding at 0.3 µM [1] did it give?
A: The remaining binding at 0.3 µM was 100%.

Q: And the remaining binding at 0.3 µM (ABL1-nonphosphorylated)?
A: Its remaining binding at 0.3 µM is 87%.

Q: What about the remaining binding at 0.3 µM (ALK(C1156Y)) of the same molecule?
A: Its remaining binding at 0.3 µM is 98%.

Q: What about the remaining binding at 0.3 µM (BRAF(V600E)) of the same molecule?
A: Its remaining binding at 0.3 µM is 100%.

Q: And the remaining binding at 0.3 µM (BRSK2)?
A: Its remaining binding at 0.3 µM is 87%.

Q: And the remaining binding at 0.3 µM (DYRK1A)?
A: Its remaining binding at 0.3 µM is 66%.

Q: What about the remaining binding at 0.3 µM (EGFR(E746-A750del)) of the same molecule?
A: Its remaining binding at 0.3 µM is 87%.

Q: What about the remaining binding at 0.3 µM (FGFR1) of the same molecule?
A: The remaining binding at 0.3 µM was 95%.

Q: And the remaining binding at 0.3 µM [2]?
A: Its remaining binding at 0.3 µM is 100%.

Q: What about the remaining binding at 0.3 µM (JNK3) of the same molecule?
A: The remaining binding at 0.3 µM was 97%.

Q: What about the remaining binding at 0.3 µM (LATS2) of the same molecule?
A: Its remaining binding at 0.3 µM is 100%.

Q: And the remaining binding at 0.3 µM (LZK)?
A: The remaining binding at 0.3 µM was 100%.

Q: And the remaining binding at 0.3 µM (MAP3K2)?
A: Its remaining binding at 0.3 µM is 100%.

Q: And the remaining binding at 0.3 µM (MEK3)?
A: The remaining binding at 0.3 µM was 100%.

Q: What about the remaining binding at 0.3 µM (MST4) of the same molecule?
A: The remaining binding at 0.3 µM was 64%.

Q: What about the remaining binding at 0.3 µM (MYLK4) of the same molecule?
A: Its remaining binding at 0.3 µM is 90%.

Q: What about the remaining binding at 0.3 µM (NEK10) of the same molecule?
A: The remaining binding at 0.3 µM was 100%.

Q: What about the remaining binding at 0.3 µM (NEK5) of the same molecule?
A: The remaining binding at 0.3 µM was 100%.

Q: What about the remaining binding at 0.3 µM (PCTK2) of the same molecule?
A: The remaining binding at 0.3 µM was 100%.

Q: What about the remaining binding at 0.3 µM (PKMYT1) of the same molecule?
A: The remaining binding at 0.3 µM was 71%.

Q: What about the remaining binding at 0.3 µM (S6K1) of the same molecule?
A: Its remaining binding at 0.3 µM is 100%.
